Data taken from a melting point compilation (Tetko et al.; mined from patent text by program, amines drawn as free bases though some values may be those of a salt).

In the case of `CC(C)(C)OC(=O)N1CC(Oc2ccc(N)nc2)C1`, the melting point is reported as 83 to 84 °C. For `COc1ccc(C(=NOC(C)=O)c2cccc(F)c2F)c(O)c1Cl`, the melting point was 136 to 139 °C. In the case of `O=S(=O)(NCC(O)CN1c2ccccc2CCc2ccccc21)c1ccc(OC(F)(F)F)cc1` (stereo not given), the melting point is reported as 102 to 103 °C. `O=c1[nH]c(=O)n(CCO)c2ccccc12` showed a melting point of 274 °C. `COc1c(Br)c(C)nc(C)c1-c1ccc(Oc2ccc(OC(F)(F)F)cc2)cc1` showed a melting point of 39 to 41 °C. `CN1CCN(c2cc3c(F)cccc3c(=O)[nH]2)CC1CO` (stereo not given) showed a melting point of 216 to 217 °C. `CC(C)(C)C(O)(COc1ccc(Cl)cc1)c1cncnc1` (stereo not given) showed a melting point of 172 to 174 °C. For `OC(c1ccccc1)c1cc2ccccc2cc1C(O)c1ccccc1` (stereo not given), the melting point was 145 °C. Work on `CC(Oc1ccc(-c2ccc(CC(=O)NC3CC3)cc2)cc1)C(O)CCc1cccnc1` (stereo not given) yielded a melting point of 117 to 118 °C. `CCS(=O)(=O)Nc1ccc(-c2cccc(-c3nc(C(C)C)[nH]c3-c3cccc(C)n3)c2)cc1` gave a melting point of 123 to 135 °C. Work on `COc1cc2ncnc(N3CCN(C(=S)Nc4ccc(Cc5ccncc5)cc4)CC3)c2cc1OC` yielded a melting point of 198 to 200 °C. `N#Cc1ccc(-c2ccc(-c3cn4cc(C#N)ccc4n3)o2)cc1` gave a melting point of 298 to 300 °C. `C#CCCCCCCCOc1cccc(C(N)=O)c1` gave a melting point of 82 to 83 °C. `Cc1nc(C(=O)NCCN(C)C)c2n1-c1ccc(Cl)cc1C(c1ccccc1F)=NC2` gave a melting point of 209 to 211 °C. For `COc1cccc(CCc2c(CC(=O)NC(C)C)ccc(OC)c2OC)c1`, the melting point was 138 to 140 °C. In the case of `N#Cc1ccc(OCCNc2ccc(C(=O)O)cc2)c2ccccc12`, the melting point is reported as 254 to 256 °C. For `Cc1cc(C)cc(CON2C(=O)COc3ccc(C=C4SC(=S)NC4=O)cc32)c1`, the melting point was greater than 300 °C. `C=CCN1CCC2(c3cccc(O)c3)CCCC2C1` (stereo not given) showed a melting point of 106 to 108 °C. For `CC(=O)Nc1c(I)c(C(=O)OCOC(=O)C(C)(C)C)c(I)c(N(C)C(C)=O)c1I`, the melting point was 232 to 234 °C. `N#CCC(=O)c1cc(F)c(F)c(F)c1F` gave a melting point of 55 to 57 °C. `O=c1c(/C=C/c2nnn[nH]2)coc2ccccc12` gave a melting point of 254 to 255 °C. In the case of `CC(C)c1ccccc1NC(=O)c1ccccc1SSc1ccccc1C(=O)Nc1ccccc1C(C)C`, the melting point is reported as 235 to 237 °C. Work on `CCCCCCCCSc1ccc(CC(NC(C)=O)(C(=O)OCC)C(=O)OCC)cc1` yielded a melting point of 82 to 84 °C. With `COc1cccc2c(=O)cc(N3CCOCC3)oc12` the melting point was 165 °C. `CCCCc1ccc(C(=O)NCc2c[nH]c(=S)n2[C@H]2CCc3c(F)cc(F)cc3C2)nc1` gave a melting point of 99 to 104 °C. Work on `CCC(=O)c1ccc(O)c(C(C)C)c1` yielded a melting point of 105 °C. In the case of `CC1=CC2=C(N3CN(N4CCOCC4)C=C3N=N2)N(c2ccccc2Cl)C1`, the melting point is reported as 251 to 254 °C. In the case of `COc1ccc(C(=O)c2ccc(-c3ccc(Cl)cc3)nc2)cc1OC`, the melting point is reported as 168 to 170 °C. For `CCC(NCC(F)(F)F)c1ccc(Cl)c2nc3n(c12)CCCN3c1ccc(Cl)cc1Cl` (stereo not given), the melting point was 133 to 135 °C. `CC1(C(=O)O)CCC(=O)c2cc(C3CCCCC3)c(Cl)cc21` (stereo not given) gave a melting point of 227 to 228 °C. `CC(C)c1cccc(C(C)C)c1NC(=O)CNCC1(Nc2ccccc2)CCCCC1` showed a melting point of 104 to 106 °C. For `O=C(NCCO)c1cc(-c2cccc3cc(Cc4cccc(C(F)(F)F)c4)sc23)ncn1`, the melting point was 46 to 47 °C. In the case of `CCc1[nH]cc2c1-c1ccc(Cl)cc1C(c1ccccc1Cl)=NC2`, the melting point is reported as 251 to 253 °C. Work on `Cc1ccc(S(=O)(=O)NN=C2C(=O)Nc3cccc(Cl)c32)cc1` yielded a melting point of 195 to 196 °C. With `COc1ccc(OCc2ccc(OCc3nc(-c4ccccc4)oc3C)cc2)c(CC(=O)O)c1` the melting point was 134 to 136 °C. `C[C@@H]1CNC(=O)c2cc3c(Cl)cccc3n21` gave a melting point of 180 to 184 °C. `C[Si](C)(c1ccc(N(c2ccccc2)c2ccccc2)cc1)c1ccc(N(c2ccccc2)c2ccccc2)cc1` showed a melting point of 170 to 172 °C. `O=C1NC(=O)C(=Cc2ccc3c(c2)CCC(Cc2ccccc2)O3)S1` (single isomer, unassigned; (-)) gave a melting point of 255 °C. With `CN1CCC(OC(=O)c2ccccc2Nc2ccnc3cc(C(F)(F)F)ccc23)CC1` the melting point was 116 °C. With `Oc1ccccc1-c1ncc2ncc(Cl)cc2n1` the melting point was 211 to 212 °C. For `COc1ccc2c(c1)C(=O)C(=Cc1ccc(F)cc1)CC2`, the melting point was 129 to 130 °C. Work on `COc1ccc(OCC(O)CNCCNc2c(C)c(=O)n(C)c(=O)n2C)cc1OC` (stereo not given) yielded a melting point of 103 to 104 °C. Molecule `CC(CSC#N)C(=O)O` (stereo not given) has a melting point of 24 to 25 °C. For `CC(=NOCCO)c1ccc(-c2ccccc2)cc1`, the melting point was 128 to 130 °C. `O=C(O)CCC(=O)Nc1ccc(N2CCN(C3(c4ccc(-c5ccccc5)cc4)C(=O)NC(=O)NC3=O)CC2)cc1` gave a melting point of 246 to 247 °C. With `CCOC(=O)C(OC)C(=O)Nc1cc(Cl)cc(Cl)c1` (stereo not given) the melting point was 89.5 to 92.5 °C. Work on `Cc1ccc(C(=O)c2cc([N+](=O)[O-])ccc2N2CCC(C)CC2)cc1` yielded a melting point of 86 °C. `COc1ccc(OC)c(CCc2ccc3c(c2)C(=O)NCN3)c1` gave a melting point of 138 to 140 °C. In the case of `O=C(O)c1ccccc1OC1CCOC1=O` (stereo not given), the melting point is reported as 113 to 115 °C. With `CN1CCN(C2=Nc3cc(Cl)ccc3Nc3ccsc32)CC1` the melting point was 225 to 226 °C. Work on `COC(=O)COc1ccc(C(O)CNCc2ccc(C(=O)OC)cc2)cc1` (stereo not given) yielded a melting point of 97 to 100 °C. `CCOc1cc(CCNC(=S)Nc2nccs2)ccc1OC` showed a melting point of 150 to 152 °C. `O=C(O)c1cccc(Cn2ccn(C3CCc4ccccc4C3)c2=S)c1` (stereo not given) showed a melting point of 252 to 254 °C. Work on `CC(C)Cc1ccc([N+](=O)[O-])cc1C#N` yielded a melting point of 73 °C. Work on `CCNS(=O)(=O)CC(=O)C1=CNC(C)=C(C(=O)OC)C1c1cccc([N+](=O)[O-])c1` (stereo not given) yielded a melting point of 185 to 187 °C. In the case of `O=C(C1CC1)N1CCCCc2cc(C(O)(C(F)(F)F)C(F)(F)F)ccc21`, the melting point is reported as 165 to 167 °C. For `COc1ccc(CCc2cccc(C(=O)Nc3ccc(Cl)cc3)c2O)cc1`, the melting point was 141 °C. With `Cc1c(-c2ccccc2)n(-c2cccc(S(C)(=O)=O)c2)c(-c2ccccc2)cc1=O` the melting point was 246 to 248 °C. With `CCOP(=O)(CC(=O)Nc1cc2c(Nc3ccc(Br)c(Br)c3)ncnc2cn1)OCC` the melting point was 120 to 124 °C. With `COc1ccccc1CNc1ccc2cc(Nc3ncccn3)ccc2n1` the melting point was 175 °C. Work on `CC(C)(C)OC(=O)NC(C)(C)c1ccc(-c2nc(Nc3cccc(CCO)c3)ncc2C#N)cc1` yielded a melting point of 164 °C. `COC(=O)N(C)CCCCCC(=O)OC[C@@H]1CC(c2ccc(-c3ccc(N4C[C@H](Cn5ccnn5)OC4=O)cc3F)cn2)=NO1` gave a melting point of 103 °C. For `CCc1c(O)c(C(C)=O)cc2c1OC(C)(C)CC2C` (stereo not given), the melting point was 104 to 106 °C. `COC=C(C(=O)OC)N(C)N1CSC(Br)=C1c1ccc(Br)cc1` showed a melting point of 112 °C. In the case of `O=c1nc(-c2nccs2)sc2ccccc12`, the melting point is reported as 229 to 230 °C. Molecule `CC(C)(C)c1nc(-c2ccccc2)[nH]c1C(C)(C)C` has a melting point of 156 to 158 °C. For `O=C(OCC1OC(n2ccc(-n3cncn3)nc2=O)C(OC(=O)c2ccccc2)C1OC(=O)c1ccccc1)c1ccccc1` (stereo not given), the melting point was 83 to 84 °C. `CCOC(=O)c1ccc2c(c(C)nn2C)c1C#N` showed a melting point of 170 to 176 °C. Molecule `COc1ccc(OC)c2c1C(=O)c1ccc(C)cc1C2OC` (stereo not given) has a melting point of 177 to 179 °C. Work on `Cc1cccc(Nc2cc(Cl)nc(SCC(=O)O)n2)c1C` yielded a melting point of 146 to 151 °C.
